The record followed here is patent US20250152604A1, “CONTRACEPTIVE METHODS WITH SCHEDULED BLEEDING EFFECTS” (ESTETRA SRL, priority 2022, published 2025).

The nature of this series: Solubility description. The format is physicochemical. The note with it: for solubility in water: water (and aqueous solutions).

Molecules are shown by their SMILES.

Regarding `C[C@]12CC[C@@H]3c4ccc(O)cc4CC[C@H]3[C@@H]1[C@@H](O)[C@@H](O)C2O` (stereo in doubt) [Estetrol monohydrate, estra-1,3,5 (10)-triene-3,15α, 16α, 17α-tetrol monohydrate], the solubility in water result is recorded as “poorly soluble”. Moreover, the solubility in acetone result (acetone) is “sparingly soluble”. The solubility in acetonitrile entry (acetonitrile) is recorded as “slightly soluble”. Also, where the note is “ethanol”, the solubility in ethanol result is “soluble”. Also, for the setting “ethyl acetate”, the “solubility in ethyl acetate” value is “slightly soluble”. Besides, the solubility in methanol entry (methanol) is “soluble”.
As for `C[C@]12CCC(=O)C=C1[C@@H]1C[C@@H]1[C@H]1[C@@H]3[C@@H]4C[C@@H]4[C@@]4(CCC(=O)O4)[C@@]3(C)CC[C@@H]12` [Drospirenone, reference compound], the solubility in water entry was “slight solubility”.
